According to US9340590B2 (priority 2011, dated 2016):
pIC50: −log10 of the molar value. Like-named read-outs stand apart in the source and are kept apart here. Positions of bridges follow the written chain, without caps; N, C: chain ends. Non-standard residues stand in square brackets, D forms with d. Residues, ends and D or L forms follow the SMILES beside them. Trp(1-Me) = Cn1cc(C[C@H](N)C(=O)O)c2ccccc21

Columns and labels:
Test in all cases: cell-based
hNav1.7 = hNav1.7 (Homo sapiens, UniProt Q15858); type: cell-based; details: IonWorks Quattro, read-out: IWQ Use Nav1.7
hNav1.5 = hNav1.5 (Homo sapiens, UniProt Q14524); details: IonWorks Quattro, read-out: IWQ Use Nav1.5
hNav1.3 = hNav1.3 (Homo sapiens, UniProt Q9NY46); details: IonWorks Quattro, read-out: IWQ Use Nav1.3
Chain of hNav1.3 (Q9NY46 whole entry, looked up): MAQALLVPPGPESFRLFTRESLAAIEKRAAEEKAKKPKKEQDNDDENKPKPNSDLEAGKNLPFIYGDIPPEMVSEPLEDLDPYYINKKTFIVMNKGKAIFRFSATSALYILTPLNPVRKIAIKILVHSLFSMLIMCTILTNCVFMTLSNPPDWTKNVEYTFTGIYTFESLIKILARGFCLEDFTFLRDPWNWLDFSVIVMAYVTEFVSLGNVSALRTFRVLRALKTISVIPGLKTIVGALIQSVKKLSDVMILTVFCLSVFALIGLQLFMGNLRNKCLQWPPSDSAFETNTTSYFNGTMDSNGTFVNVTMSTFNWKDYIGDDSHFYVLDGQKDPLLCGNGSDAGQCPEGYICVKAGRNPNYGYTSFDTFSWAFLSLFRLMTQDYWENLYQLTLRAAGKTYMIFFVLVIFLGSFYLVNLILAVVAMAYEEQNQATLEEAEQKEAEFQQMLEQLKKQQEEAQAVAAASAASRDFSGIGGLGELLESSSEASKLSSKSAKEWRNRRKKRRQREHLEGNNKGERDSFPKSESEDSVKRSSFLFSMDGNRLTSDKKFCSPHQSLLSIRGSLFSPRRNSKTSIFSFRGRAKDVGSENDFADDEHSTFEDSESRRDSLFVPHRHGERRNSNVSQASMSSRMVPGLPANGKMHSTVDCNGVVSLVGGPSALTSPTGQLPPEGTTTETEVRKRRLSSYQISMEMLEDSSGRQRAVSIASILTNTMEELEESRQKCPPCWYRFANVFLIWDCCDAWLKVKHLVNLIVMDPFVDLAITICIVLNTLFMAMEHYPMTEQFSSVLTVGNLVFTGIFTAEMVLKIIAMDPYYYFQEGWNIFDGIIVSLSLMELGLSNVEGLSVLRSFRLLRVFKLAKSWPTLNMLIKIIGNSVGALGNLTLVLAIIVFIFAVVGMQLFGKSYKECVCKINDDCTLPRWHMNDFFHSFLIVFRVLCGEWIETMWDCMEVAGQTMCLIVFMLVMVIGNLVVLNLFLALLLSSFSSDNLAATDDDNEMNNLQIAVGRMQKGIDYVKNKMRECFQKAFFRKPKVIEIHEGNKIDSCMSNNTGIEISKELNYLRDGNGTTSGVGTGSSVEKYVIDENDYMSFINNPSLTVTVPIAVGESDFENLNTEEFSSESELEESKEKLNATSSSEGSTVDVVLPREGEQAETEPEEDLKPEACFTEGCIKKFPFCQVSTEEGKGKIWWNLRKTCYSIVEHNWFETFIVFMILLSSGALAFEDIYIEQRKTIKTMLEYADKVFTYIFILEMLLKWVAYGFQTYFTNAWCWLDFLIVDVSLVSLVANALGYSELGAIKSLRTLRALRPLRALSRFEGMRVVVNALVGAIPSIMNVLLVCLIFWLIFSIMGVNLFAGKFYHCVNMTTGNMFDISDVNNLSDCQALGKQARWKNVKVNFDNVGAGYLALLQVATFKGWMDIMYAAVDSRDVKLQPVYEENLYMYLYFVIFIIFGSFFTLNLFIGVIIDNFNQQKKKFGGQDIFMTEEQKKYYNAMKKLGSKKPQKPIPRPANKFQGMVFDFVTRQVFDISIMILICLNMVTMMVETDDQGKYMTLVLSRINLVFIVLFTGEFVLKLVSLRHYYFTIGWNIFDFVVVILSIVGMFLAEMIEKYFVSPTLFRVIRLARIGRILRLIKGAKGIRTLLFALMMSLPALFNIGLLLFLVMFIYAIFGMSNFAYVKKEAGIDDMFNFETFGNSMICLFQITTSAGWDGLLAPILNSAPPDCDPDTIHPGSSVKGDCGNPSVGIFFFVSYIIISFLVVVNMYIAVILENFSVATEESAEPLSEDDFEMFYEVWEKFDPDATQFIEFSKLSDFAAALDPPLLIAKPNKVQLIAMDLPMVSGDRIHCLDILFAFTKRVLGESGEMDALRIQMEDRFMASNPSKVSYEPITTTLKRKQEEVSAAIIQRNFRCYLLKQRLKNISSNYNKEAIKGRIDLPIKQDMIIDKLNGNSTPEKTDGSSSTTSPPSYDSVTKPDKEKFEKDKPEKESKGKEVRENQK

Chain of hNav1.7 (Q15858 whole entry, looked up): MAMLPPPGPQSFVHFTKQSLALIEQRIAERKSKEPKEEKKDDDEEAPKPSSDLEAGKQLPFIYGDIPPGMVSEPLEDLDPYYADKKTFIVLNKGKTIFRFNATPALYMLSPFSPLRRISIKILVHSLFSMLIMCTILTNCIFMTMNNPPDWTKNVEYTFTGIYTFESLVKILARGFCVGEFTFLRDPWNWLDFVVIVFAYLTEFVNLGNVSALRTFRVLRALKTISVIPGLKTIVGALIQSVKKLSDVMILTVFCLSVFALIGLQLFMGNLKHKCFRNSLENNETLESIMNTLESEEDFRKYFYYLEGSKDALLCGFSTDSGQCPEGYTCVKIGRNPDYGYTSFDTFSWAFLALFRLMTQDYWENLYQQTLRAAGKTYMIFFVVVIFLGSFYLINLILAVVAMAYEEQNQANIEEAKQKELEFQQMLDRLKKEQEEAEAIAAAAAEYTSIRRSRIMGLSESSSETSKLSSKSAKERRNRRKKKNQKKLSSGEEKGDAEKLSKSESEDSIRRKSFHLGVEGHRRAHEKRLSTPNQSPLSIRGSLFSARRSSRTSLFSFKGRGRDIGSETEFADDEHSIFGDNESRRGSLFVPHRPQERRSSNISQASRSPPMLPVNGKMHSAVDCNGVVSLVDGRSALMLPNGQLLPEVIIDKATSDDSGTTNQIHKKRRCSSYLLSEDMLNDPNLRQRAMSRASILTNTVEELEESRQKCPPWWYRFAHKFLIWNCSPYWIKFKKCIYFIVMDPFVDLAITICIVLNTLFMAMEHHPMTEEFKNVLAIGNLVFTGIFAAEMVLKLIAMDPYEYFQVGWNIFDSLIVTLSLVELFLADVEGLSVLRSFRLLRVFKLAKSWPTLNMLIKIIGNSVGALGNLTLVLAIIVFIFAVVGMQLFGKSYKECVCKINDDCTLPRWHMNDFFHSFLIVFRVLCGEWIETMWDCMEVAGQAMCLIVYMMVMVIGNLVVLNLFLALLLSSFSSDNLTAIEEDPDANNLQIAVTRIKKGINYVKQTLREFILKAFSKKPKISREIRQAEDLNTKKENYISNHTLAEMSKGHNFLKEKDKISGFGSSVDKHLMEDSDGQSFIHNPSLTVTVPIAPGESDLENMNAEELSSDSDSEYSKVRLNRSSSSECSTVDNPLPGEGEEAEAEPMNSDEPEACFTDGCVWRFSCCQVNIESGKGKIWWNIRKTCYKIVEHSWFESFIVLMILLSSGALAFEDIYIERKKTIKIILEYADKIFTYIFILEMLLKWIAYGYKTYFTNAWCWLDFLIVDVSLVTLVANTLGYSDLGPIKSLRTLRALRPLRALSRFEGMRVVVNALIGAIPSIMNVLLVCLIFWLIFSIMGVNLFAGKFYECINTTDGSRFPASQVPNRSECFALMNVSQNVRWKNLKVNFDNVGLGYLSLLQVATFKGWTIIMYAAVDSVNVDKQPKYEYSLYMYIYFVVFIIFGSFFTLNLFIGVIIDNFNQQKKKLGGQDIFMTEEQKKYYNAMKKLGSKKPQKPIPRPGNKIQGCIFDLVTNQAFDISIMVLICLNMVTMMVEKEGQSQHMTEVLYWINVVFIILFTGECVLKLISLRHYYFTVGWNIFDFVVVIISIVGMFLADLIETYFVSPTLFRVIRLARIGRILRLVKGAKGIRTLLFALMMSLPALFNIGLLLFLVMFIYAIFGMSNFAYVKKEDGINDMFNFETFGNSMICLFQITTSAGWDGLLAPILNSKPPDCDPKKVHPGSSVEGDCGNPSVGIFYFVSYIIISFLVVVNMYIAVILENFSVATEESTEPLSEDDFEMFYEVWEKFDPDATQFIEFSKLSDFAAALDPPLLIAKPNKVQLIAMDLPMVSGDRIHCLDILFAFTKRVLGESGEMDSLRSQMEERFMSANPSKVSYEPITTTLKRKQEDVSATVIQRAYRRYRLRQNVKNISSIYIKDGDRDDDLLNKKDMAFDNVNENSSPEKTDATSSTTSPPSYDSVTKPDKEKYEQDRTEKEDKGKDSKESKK

Compound: CC[C@H](C)[C@@H]1NC(=O)[C@@H]2CCCN2C(=O)[C@H]([C@@H](C)CC)NC(=O)[C@@H]2CSSC[C@@H]3NC(=O)[C@H](C(C)C)NC(=O)[C@H](CC(C)C)NC(=O)[C@H](CC(N)=O)NC(=O)[C@@H]4CCCN4C(=O)[C@H](CCCNC(=N)N)NC(=O)[C@H](CSSC[C@H](NC(=O)[C@@H](N)CC(=O)O)C(=O)N[C@@H](CC(C)C)C(=O)NCC(=O)N[C@@H](Cc4ccccc4)C(=O)N[C@@H](CCSC)C(=O)N[C@@H](CCCNC(=N)N)C(=O)N[C@@H](CCCCN)C(=O)N2)NC(=O)[C@H](CSSC[C@@H](C(=O)N[C@@H](CCCCN)C(=O)N[C@@H](Cc2ccc(O)cc2)C(=O)N[C@H](C(=O)N[C@@H](Cc2ccccc2)C(N)=O)C(C)C)NC(=O)[C@H](Cc2c[nH]c4ccccc24)NC(=O)[C@H](CCCCN)NC(=O)[C@H](Cc2c[nH]cn2)NC(=O)[C@H]([C@@H](C)O)NC(=O)[C@H](CCCNC(=N)N)NC(=O)[C@H](CO)NC3=O)NC(=O)[C@H](CCCCN)NC(=O)[C@H](CC(=O)O)NC(=O)[C@H](CC(N)=O)NC1=O [compound 195] (H-DCLGFMRKCIPINDKCCRPNLVCSRTHKWCKYVF-NH2; disulfide 2-17, 9-23, 16-30)
- pIC50 (hNav1.7; Use): 6.18
- pIC50 (hNav1.5; Use): 4.74
- pIC50 (hNav1.3; Use): 6.22

Compound: CC[C@H](C)[C@@H]1NC(=O)[C@@H]2CSSC[C@@H]3NC(=O)[C@H](C(C)C)NC(=O)[C@H](CC(C)C)NC(=O)[C@H](CC(N)=O)NC(=O)[C@@H]4CCCN4C(=O)[C@H](CCCNC(=N)N)NC(=O)[C@H](CSSC[C@H](NC(=O)[C@@H](N)CC(=O)O)C(=O)N[C@@H](CC(C)C)C(=O)NCC(=O)N[C@@H](Cc4ccccc4)C(=O)N[C@@H](CCSC)C(=O)N[C@@H](CCCNC(=N)N)C(=O)N[C@@H](CCCCN)C(=O)N2)NC(=O)[C@H](CSSC[C@@H](C(=O)N[C@@H](CCCCN)C(=O)N[C@@H](Cc2ccc(O)cc2)C(=O)N[C@H](C(=O)N[C@@H](Cc2ccccc2)C(N)=O)C(C)C)NC(=O)[C@H](Cc2c[nH]c4ccccc24)NC(=O)[C@H](CCCCN)NC(=O)[C@H](Cc2c[nH]cn2)NC(=O)[C@H]([C@@H](C)O)NC(=O)[C@H](CCCNC(=N)N)NC(=O)[C@H](CO)NC3=O)NC(=O)[C@H](CCCCN)NC(=O)[C@H](CC(=O)O)NC(=O)[C@H](CC(N)=O)NC(=O)[C@H]([C@@H](C)O)NC(=O)[C@@H]2CCCN2C1=O [compound 196] (H-DCLGFMRKCIPTNDKCCRPNLVCSRTHKWCKYVF-NH2; disulfide 2-17, 9-23, 16-30)
- pIC50 (hNav1.7; Use): 7.01
- pIC50 (hNav1.5; Use): 5.15
- pIC50 (hNav1.3; Use): 7.13

Compound: CC[C@H](C)[C@@H]1NC(=O)[C@@H]2CSSC[C@@H]3NC(=O)[C@H](C(C)C)NC(=O)[C@H](CC(C)C)NC(=O)[C@H](CC(N)=O)NC(=O)[C@@H]4CCCN4C(=O)[C@H](CCCNC(=N)N)NC(=O)[C@H](CSSC[C@H](NC(=O)[C@@H](N)CC(=O)O)C(=O)N[C@@H](CC(C)C)C(=O)NCC(=O)N[C@@H](Cc4ccccc4)C(=O)N[C@@H](CCSC)C(=O)N[C@@H](CCCNC(=N)N)C(=O)N[C@@H](CCCCN)C(=O)N2)NC(=O)[C@H](CSSC[C@@H](C(=O)N[C@@H](CCCCN)C(=O)N[C@@H](Cc2ccc(O)cc2)C(=O)N[C@H](C(=O)N[C@@H](Cc2ccccc2)C(N)=O)C(C)C)NC(=O)[C@H](Cc2c[nH]c4ccccc24)NC(=O)[C@H](CCCCN)NC(=O)[C@H](Cc2c[nH]cn2)NC(=O)[C@H]([C@@H](C)O)NC(=O)[C@H](CCCNC(=N)N)NC(=O)[C@H](CO)NC3=O)NC(=O)[C@H](CCCCN)NC(=O)[C@H](CC(=O)O)NC(=O)[C@H](CC(N)=O)NC(=O)[C@H](Cc2ccc(O)cc2)NC(=O)[C@@H]2CCCN2C1=O [compound 197] (H-DCLGFMRKCIPYNDKCCRPNLVCSRTHKWCKYVF-NH2; disulfide 2-17, 9-23, 16-30)
- pIC50 (hNav1.7; Use): 7.01
- pIC50 (hNav1.5; Use): 5.16
- pIC50 (hNav1.3; Use): 7.38

Compound: CC[C@H](C)[C@@H]1NC(=O)[C@@H]2CSSC[C@@H]3NC(=O)[C@H](C(C)C)NC(=O)[C@H](CC(C)C)NC(=O)CNC(=O)[C@@H]4CCCN4C(=O)[C@H](CCCNC(=N)N)NC(=O)[C@H](CSSC[C@H](NC(=O)[C@@H](N)CC(=O)O)C(=O)N[C@@H](CC(C)C)C(=O)NCC(=O)N[C@@H](Cc4ccccc4)C(=O)N[C@@H](CCSC)C(=O)N[C@@H](CCCNC(=N)N)C(=O)N[C@@H](CCCCN)C(=O)N2)NC(=O)[C@H](CSSC[C@@H](C(=O)N[C@@H](CCCCN)C(=O)N[C@@H](Cc2ccc(O)cc2)C(=O)N[C@H](C(=O)N[C@@H](Cc2ccccc2)C(N)=O)C(C)C)NC(=O)[C@H](Cc2c[nH]c4ccccc24)NC(=O)[C@H](CCCCN)NC(=O)[C@H](Cc2c[nH]cn2)NC(=O)[C@H]([C@@H](C)O)NC(=O)[C@H](CCCNC(=N)N)NC(=O)[C@H](CO)NC3=O)NC(=O)[C@H](CCCCN)NC(=O)[C@H](CC(=O)O)NC(=O)[C@H](CC(N)=O)NC(=O)[C@H](CC(=O)O)NC(=O)[C@@H]2CCCN2C1=O [compound 198] (H-DCLGFMRKCIPDNDKCCRPGLVCSRTHKWCKYVF-NH2; disulfide 2-17, 9-23, 16-30)
- pIC50 (hNav1.7; Use): 6.64
- pIC50 (hNav1.5; Use): 5.01
- pIC50 (hNav1.3; Use): 6.90

Compound: CC[C@H](C)[C@@H]1NC(=O)[C@@H]2CSSC[C@@H]3NC(=O)[C@H](C(C)C)NC(=O)[C@H](CC(C)C)NC(=O)[C@H](Cc4ccccc4)NC(=O)[C@@H]4CCCN4C(=O)[C@H](CCCNC(=N)N)NC(=O)[C@H](CSSC[C@H](NC(=O)[C@@H](N)CC(=O)O)C(=O)N[C@@H](CC(C)C)C(=O)NCC(=O)N[C@@H](Cc4ccccc4)C(=O)N[C@@H](CCSC)C(=O)N[C@@H](CCCNC(=N)N)C(=O)N[C@@H](CCCCN)C(=O)N2)NC(=O)[C@H](CSSC[C@@H](C(=O)N[C@@H](CCCCN)C(=O)N[C@@H](Cc2ccc(O)cc2)C(=O)N[C@H](C(=O)N[C@@H](Cc2ccccc2)C(N)=O)C(C)C)NC(=O)[C@H](Cc2c[nH]c4ccccc24)NC(=O)[C@H](CCCCN)NC(=O)[C@H](Cc2c[nH]cn2)NC(=O)[C@H]([C@@H](C)O)NC(=O)[C@H](CCCNC(=N)N)NC(=O)[C@H](CO)NC3=O)NC(=O)[C@H](CCCCN)NC(=O)[C@H](CC(=O)O)NC(=O)[C@H](CC(N)=O)NC(=O)[C@H](CC(=O)O)NC(=O)[C@@H]2CCCN2C1=O [compound 199] (H-DCLGFMRKCIPDNDKCCRPFLVCSRTHKWCKYVF-NH2; disulfide 2-17, 9-23, 16-30)
- pIC50 (hNav1.7; Use): 6.81
- pIC50 (hNav1.5; Use): 4.97
- pIC50 (hNav1.3; Use): 7.17

Compound: CC[C@H](C)[C@@H]1NC(=O)[C@@H]2CSSC[C@@H]3NC(=O)[C@H](C(C)C)NC(=O)[C@H](CC(C)C)NC(=O)[C@H](Cc4ccc(O)cc4)NC(=O)[C@@H]4CCCN4C(=O)[C@H](CCCNC(=N)N)NC(=O)[C@H](CSSC[C@H](NC(=O)[C@@H](N)CC(=O)O)C(=O)N[C@@H](CC(C)C)C(=O)NCC(=O)N[C@@H](Cc4ccccc4)C(=O)N[C@@H](CCSC)C(=O)N[C@@H](CCCNC(=N)N)C(=O)N[C@@H](CCCCN)C(=O)N2)NC(=O)[C@H](CSSC[C@@H](C(=O)N[C@@H](CCCCN)C(=O)N[C@@H](Cc2ccc(O)cc2)C(=O)N[C@H](C(=O)N[C@@H](Cc2ccccc2)C(N)=O)C(C)C)NC(=O)[C@H](Cc2c[nH]c4ccccc24)NC(=O)[C@H](CCCCN)NC(=O)[C@H](Cc2c[nH]cn2)NC(=O)[C@H]([C@@H](C)O)NC(=O)[C@H](CCCNC(=N)N)NC(=O)[C@H](CO)NC3=O)NC(=O)[C@H](CCCCN)NC(=O)[C@H](CC(=O)O)NC(=O)[C@H](CC(N)=O)NC(=O)[C@H](CC(=O)O)NC(=O)[C@@H]2CCCN2C1=O [compound 200] (H-DCLGFMRKCIPDNDKCCRPYLVCSRTHKWCKYVF-NH2; disulfide 2-17, 9-23, 16-30)
- pIC50 (hNav1.7; Use): 6.94
- pIC50 (hNav1.5; Use): 5.04
- pIC50 (hNav1.3; Use): 7.26

Compound: CC[C@H](C)[C@@H]1NC(=O)[C@@H]2CSSC[C@@H]3NC(=O)[C@H](C(C)C)NC(=O)[C@H](CC(C)C)NC(=O)[C@H](CC(N)=O)NC(=O)[C@@H]4CCCN4C(=O)[C@H](CCCNC(=N)N)NC(=O)[C@H](CSSC[C@H](NC(=O)[C@@H](N)CC(=O)O)C(=O)N[C@@H](CC(C)C)C(=O)NCC(=O)N[C@@H](Cc4ccccc4)C(=O)N[C@@H](CCSC)C(=O)N[C@@H](CCCNC(=N)N)C(=O)N[C@@H](CCCCN)C(=O)N2)NC(=O)[C@H](CSSC[C@@H](C(=O)N[C@@H](CCCCN)C(=O)N[C@@H](Cc2cn(C)c4ccccc24)C(=O)N[C@H](C(=O)N[C@@H](Cc2ccccc2)C(N)=O)C(C)C)NC(=O)[C@H](Cc2c[nH]c4ccccc24)NC(=O)[C@H](CCCCN)NC(=O)[C@H](Cc2c[nH]cn2)NC(=O)[C@H]([C@@H](C)O)NC(=O)[C@H](CCCNC(=N)N)NC(=O)[C@H](CO)NC3=O)NC(=O)[C@H](CCCCN)NC(=O)[C@H](CC(=O)O)NC(=O)[C@H](CC(N)=O)NC(=O)[C@H](CC(=O)O)NC(=O)[C@@H]2CCCN2C1=O [compound 246] (H-DCLGFMRKCIPDNDKCCRPNLVCSRTHKWCK[Trp(1-Me)]VF-NH2; disulfide 2-17, 9-23, 16-30)
- pIC50 (hNav1.7; Table 25, use, […]): 7.22
- pIC50 (hNav1.5; Table 25, use, […]): 4.84
- pIC50 (hNav1.3; Table 25, use, […]): 7.52

Compound: CC[C@H](C)[C@H](NC(=O)[C@H](Cc1ccc(O)cc1)NC(=O)[C@H](CCCCN)NC(=O)[C@@H]1CSSC[C@@H]2NC(=O)[C@H](CCCCN)NC(=O)[C@H](CC(=O)O)NC(=O)[C@H](CC(N)=O)NC(=O)[C@H](CC(=O)O)NC(=O)[C@@H]3CCCN3C(=O)[C@H]([C@@H](C)CC)NC(=O)[C@@H]3CSSC[C@H](NC(=O)[C@H](C(C)C)NC(=O)[C@H](CC(C)C)NC(=O)[C@H](CC(N)=O)NC(=O)[C@@H]4CCCN4C(=O)[C@H](CCCNC(=N)N)NC(=O)[C@H](CSSC[C@H](NC(=O)[C@@H](N)CC(=O)O)C(=O)N[C@@H](CC(C)C)C(=O)NCC(=O)N[C@@H](Cc4ccccc4)C(=O)N[C@@H](CCSC)C(=O)N[C@@H](CCCNC(=N)N)C(=O)N[C@@H](CCCCN)C(=O)N3)NC2=O)C(=O)N[C@@H](CO)C(=O)N[C@@H](CCCNC(=N)N)C(=O)N[C@@H]([C@@H](C)O)C(=O)N[C@@H](Cc2c[nH]cn2)C(=O)N[C@@H](CCCCN)C(=O)N[C@@H](Cc2c[nH]c3ccccc23)C(=O)N1)C(=O)N[C@@H](Cc1ccccc1)C(N)=O [compound 248] (H-DCLGFMRKCIPDNDKCCRPNLVCSRTHKWCKYIF-NH2; disulfide 2-17, 9-23, 16-30)
- pIC50 (hNav1.7; Table 26, use, […]): 6.82
- pIC50 (hNav1.5; Table 26, use, […]): 5.16
- pIC50 (hNav1.3; Table 26, use, […]): 7.05
